From patent publication US20150266857A1, “NOVEL 3-INDOL SUBSTITUTED DERIVATIVES, PHARMACEUTICAL COMPOSITIONS AND METHODS FOR USE” (iTeos Therapeutics, priority 2014, published 2015)
Where a name gives a salt, the structure may show the parent alone.

Legend:
[1] = biological target: T1, human glioblastoma A172 cells, naturally expressing hTDO2 (Homo sapiens, UniProt P48775); experiment: Cellular assay for TDO2 activity, A172 cells; format: cell-based; conditions: overnight incubation, kynurenine in supernatant
T1 construct: human glioblastoma A172 cells, naturally expressing hTDO2; endogenous in cells; host or cells: human glioblastoma A172 cells (ATCC CRL-1620)
Description: The compounds of formula I inhibit the activity of human TDO2 in cells that constitutively express TDO2, such as A172 cells. A172 is a cell line derived from human brain glioblastoma cells. The cells are available from the American Type Culture Collection (ATCC®) as CRL-1620™
The assay (adapted from Pilotte L et al., Proc Natl Acad Sci USA, 2012, 109(7), 2497-502) was performed in 96-well flat bottom plates seeded with human glioblastoma A172 cells, naturally expressing hTDO2 (prepared as described in Tilman et al., Mol Cancer, 2007, 17(6), 80), at a concentration of 1.25×10^4 cells/well in a final volume of 200 μL. To determine TDO, the cells were incubated overnight at 37° C. at 5% CO2 in IMDM (Invitrogen) supplemented with 2% FBS and 2% penicillin/streptomycin in the presence of the compounds of the present invention, at different concentrations.
The plates were then centrifuged 5 min at 1000 rpm, and 100 μL of the supernatant were collected in a conical plate, 30 uL of TCA 30% were added and a further centrifugated at 3000×g for 10 minutes. 100 μL of the supernatant were collected in a flat bottomed plate and 100 μL of 2% (w/v) 4-(dimethylamino)-benzaldehyde in acetic acid and incubated for 5 min at room temperature. Kynurenine concentrations were determined by measuring the absorbance at 480 nm. A standard curve was made with pure kynurenine. The TDO activity was measured as described above using ten serial concentrations of the compounds of the present invention. Data were fitted using the Prism™ software (GraphPad Software, Inc.) using standard parameters.

[2] = biological target: T2, human recombinant TDO2 enzyme (Homo sapiens, UniProt P48775); experiment: Assay for TDO2 enzymatic activity determination; format: biochemical; conditions: human recombinant TDO2, L-Trp 1 mM, kynurenine absorbance at 480 nm
T2 construct: made in house
Description: To measure the TDO2 activity, the procedure described in Dolusic et al. J. Med. Chem.; 2011, 54, […] was adapted: the reaction mixture contained (final concentrations) potassium phosphate buffer (50 mM, pH 7.5), ascorbic acid (0.25 M), methylene blue (0.125 μM), catalase (40 units/mL, from bovine liver, Sigma), and human recombinant TDO2 enzyme (prepared as described in Dolusic et al. J. Med. Chem.; 2011, 54, 5320-5334; 0.9 μg) without or with the compounds of the present invention at the indicated concentrations (total volume 112.5 μL). The reaction was initiated by the addition of 37.5 μL of L-Trp (final concentration 1 mM) at room temperature. The reaction was conducted at room temperature during one hour and stopped by the addition of 30 μL of 30% (w/v) trichloroacetic acid.
To convert N-formylkynurenine into kynurenine, the reaction mixture was incubated at 65° C. for 30 min. Then 150 μL of the reaction mixture was mixed with 120 μL of 2.5% (w/v) 4-(dimethylamino)-benzaldehyde in acetic acid and incubated for 5 min at room temperature. Kynurenine concentrations were determined by measuring the absorbance at 480 nm. A standard curve was made with pure kynurenine. The TDO activity was measured as described above using ten serial concentrations of the compounds of the present invention. Data were fitted using the Prism™ software (GraphPad Software, Inc.) using standard parameters.

T2 sequence (P48775 whole entry): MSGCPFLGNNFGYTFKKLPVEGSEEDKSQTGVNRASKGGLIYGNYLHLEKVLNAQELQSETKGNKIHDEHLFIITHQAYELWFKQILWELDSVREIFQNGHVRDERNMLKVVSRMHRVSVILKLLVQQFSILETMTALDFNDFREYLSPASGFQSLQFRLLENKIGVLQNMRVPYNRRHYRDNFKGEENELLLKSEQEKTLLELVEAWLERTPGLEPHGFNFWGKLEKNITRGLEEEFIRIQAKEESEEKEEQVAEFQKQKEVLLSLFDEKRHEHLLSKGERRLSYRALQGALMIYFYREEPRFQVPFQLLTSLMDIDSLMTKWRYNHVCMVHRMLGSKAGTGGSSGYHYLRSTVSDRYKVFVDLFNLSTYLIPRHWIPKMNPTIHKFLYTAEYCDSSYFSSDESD
T1 sequence (P48775 whole entry): as above

Row | IC50 [1] | IC50 [2] | Structure (SMILES)
1 | 0.176 µM | 0.539 µM | NC(=O)CCn1cc2cc(-c3c[nH]c4cc(F)ccc34)ccc2n1 [Compound 22, 3-(5-(6-fluoro-1H-indol-3-yl)-2H-indazol-2-yl)propanamide]
2 |  | 0.322 µM | Fc1ccc2c(-c3ccc4nn(C5CCNCC5)cc4c3)c[nH]c2c1 [Compound 23, 5-(6-fluoro-1H-indol-3-yl)-2-(piperidin-4-yl)-2H-indazole]
3 | 0.677 µM | 2.8 µM | O=S(=O)(CCN1CCOCC1)NCc1nc2ccc(-c3c[nH]c4cc(F)ccc34)cc2o1 [Compound 107, N-((6-(6-fluoro-1H-indol-3-yl)benzo[d]oxazol-2-yl)methyl)-2-morpholinoethanesulfonamide]
4 | 0.223 µM | 0.913 µM | CN1CCN(CCc2nc3ccc(-c4c[nH]c5cc(F)ccc45)cc3o2)CC1 [Compound 105, 6-(6-fluoro-1H-indol-3-yl)-2-(2-(4-methylpiperazin-1-yl)ethyl)benzo[d]oxazole]
5 | 0.261 µM | 0.835 µM | NC(=O)NCc1nc2ccc(-c3c[nH]c4cc(F)ccc34)cc2o1 [Compound 102, 1-((6-(6-fluoro-1H-indol-3-yl)benzo[d]oxazol-2-yl)methyl)urea]
6 | 0.498 µM | 1.36 µM | O=S(=O)(CCN1CCNCC1)NCc1nc2ccc(-c3c[nH]c4cc(F)ccc34)cc2o1 [Compound 123, N-((6-(6-fluoro-1H-indol-3-yl)benzo[d]oxazol-2-yl)methyl)-2-(piperazin-1-yl)ethanesulfonamide]
7 | 0.345 µM | 1.46 µM | CN(C)CCS(=O)(=O)NCc1nc2ccc(-c3c[nH]c4cc(F)ccc34)cc2o1 [Compound 100, 2-(dimethylamino)-N-((6-(6-fluoro-1H-indol-3-yl)benzo[d]oxazol-2-yl)methyl)ethanesulfonamide]
8 | 0.326 µM | 0.814 µM | O=S(=O)(CCO)NCc1nc2ccc(-c3c[nH]c4cc(F)ccc34)cc2o1 [Compound 106, N-((6-(6-fluoro-1H-indol-3-yl)benzo[d]oxazol-2-yl)methyl)-2-hydroxyethanesulfonamide]
9 | 0.284 µM | 0.716 µM | O=C1Cc2cc(-c3c[nH]c4cc(F)ccc34)ccc2N1 [Compound 97, 5-(6-fluoro-1H-indol-3-yl)indolin-2-one]
10 | 0.344 µM | 2.09 µM | CN1CCN(CCS(=O)(=O)NCc2nc3ccc(-c4c[nH]c5cc(F)ccc45)cc3o2)CC1 [Compound 122, N-((6-(6-fluoro-1H-indol-3-yl)benzo[d]oxazol-2-yl)methyl)-2-(4-methylpiperazin-1-yl)ethanesulfonamide]
11 | 0.293 µM | 0.489 µM | Nc1nc2ccc(-c3c[nH]c4cc(F)ccc34)cc2o1 [Compound 98, 6-(6-fluoro-1H-indol-3-yl)benzo[d]oxazol-2-amine]
12 |  | 2.12 µM | Fc1ccc2c(-c3ccc4cnn(CC5CCNCC5)c4c3)c[nH]c2c1 [Compound 3, 6-(6-fluoro-1H-indol-3-yl)-1-(piperidin-4-ylmethyl)-1H-indazole hydrochloride]
13 |  | 7.53 µM | Fc1ccc2c(-c3ccc4cnn(C5CCNCC5)c4c3)c[nH]c2c1 [Compound 6, 6-(6-fluoro-1H-indol-3-yl)-1-(piperidin-4-yl)-1H-indazole]
14 |  | 0.407 µM | Fc1ccc2c(-c3ccc4c(cnn4C4CCNCC4)c3)c[nH]c2c1 [Compound 13, 5-(6-fluoro-1H-indol-3-yl)-1-(piperidin-4-yl)-1H-indazole]
15 |  | 0.948 µM | Fc1ccc2c(-c3ccc4cn(C5CCNCC5)nc4c3)c[nH]c2c1 [Compound 18, 6-(6-fluoro-1H-indol-3-yl)-2-(piperidin-4-yl)-2H-indazole]
16 |  | 2.22 µM | CC(=O)N1CCC(n2ncc3cc(-c4c[nH]c5cc(F)ccc45)ccc32)CC1 [Compound 14, 1-(4-(5-(6-fluoro-1H-indol-3-yl)-1H-indazol-1-yl)piperidin-1-yl)ethanone]
17 |  | 0.427 µM | Fc1ccc2c(-c3ccc4c(cnn4CC4CCNCC4)c3)c[nH]c2c1 [Compound 10, 5-(6-fluoro-1H-indol-3-yl)-1-(piperidin-4-ylmethyl)-1H-indazole]
18 |  | 0.924 µM | CC(=O)N1CCC(n2cc3cc(-c4c[nH]c5cc(F)ccc45)ccc3n2)CC1 [Compound 24, 1-(4-(5-(6-fluoro-1H-indol-3-yl)-2H-indazol-2-yl)piperidin-1-yl)ethanone]
19 | 3.77 µM |  | CS(=O)(=O)Nc1nc2ccc(-c3c[nH]c4cc(F)ccc34)cc2o1 [Compound 58, N-(6-(6-fluoro-1H-indol-3-yl)benzo[d]oxazol-2-yl)methanesulfonamide]

The remaining lines, values behind:

Row | Structure (SMILES) | IC50 [1] | IC50 [2]
20 | NC(=O)CCn1ncc2cc(-c3c[nH]c4cc(F)ccc34)ccc21 [Compound 12, 3-(5-(6-fluoro-1H-indol-3-yl)-1H-indazol-1-yl)propanamide] | 0.517 µM | 0.709 µM
21 | CC(=O)N1CCC(n2cc3ccc(-c4c[nH]c5cc(F)ccc45)cc3n2)CC1 [Compound 19, 1-(4-(6-(6-fluoro-1H-indol-3-yl)-2H-indazol-2-yl)piperidin-1-yl)ethanone] |  | 2.19 µM
22 | CC(=O)N1CCC(Cn2ncc3cc(-c4c[nH]c5cc(F)ccc45)ccc32)CC1 [Compound 11, 1-(4-((5-(6-fluoro-1H-indol-3-yl)-1H-indazol-1-yl)methyl)piperidin-1-yl)ethanone] |  | 0.68 µM
23 | NC(=O)Cn1cc2cc(-c3c[nH]c4cc(F)ccc34)ccc2n1 [Compound 20, 2-(5-(6-fluoro-1H-indol-3-yl)-2H-indazol-2-yl)acetamide] | 0.169 µM | 0.421 µM
24 | NC(=O)Cn1cc2ccc(-c3c[nH]c4cc(F)ccc34)cc2n1 [Compound 15, 2-(6-(6-fluoro-1H-indol-3-yl)-2H-indazol-2-yl)acetamide] |  | 1.16 µM
25 | CC(=O)N1CCC(Cn2cc3ccc(-c4c[nH]c5cc(F)ccc45)cc3n2)CC1 [Compound 16, 1-(4-((6-(6-fluoro-1H-indol-3-yl)-2H-indazol-2-yl)methyl)piperidin-1-yl)ethanone] |  | 1.99 µM
26 | CC(=O)N1CCC(Cn2cc3cc(-c4c[nH]c5cc(F)ccc45)ccc3n2)CC1 [Compound 21, 1-(4-((5-(6-fluoro-1H-indol-3-yl)-2H-indazol-2-yl)methyl)piperidin-1-yl)ethanone] |  | 2.67 µM
27 | Fc1ccc2c(-c3ccc4[nH]ncc4c3)c[nH]c2c1 [Compound 8, 5-(6-fluoro-1H-indol-3-yl)-1H-indazole] |  | 0.609 µM
28 | NC(=O)CCc1nc2cc(-c3c[nH]c4cc(F)ccc34)ccc2[nH]1 [Compound 46, 3-(5-(6-fluoro-1H-indol-3-yl)-1H-benzo[d]imidazol-2-yl)propanamide] |  | 1.33 µM
29 | CC(=O)N1CCC(Cn2ncc3ccc(-c4c[nH]c5cc(F)ccc45)cc32)CC1 [Compound 4, 1-(4-((6-(6-fluoro-1H-indol-3-yl)-1H-indazol-1-yl)methyl)piperidin-1-yl)ethanone] |  | 3.18 µM
30 | CC(=O)N1CCC(n2ncc3ccc(-c4c[nH]c5cc(F)ccc45)cc32)CC1 [Compound 7, 1-(4-(6-(6-fluoro-1H-indol-3-yl)-1H-indazol-1-yl)piperidin-1-yl)ethanone] |  | 13.8 µM
31 | NC(=O)CCn1ncc2ccc(-c3c[nH]c4cc(F)ccc34)cc21 [Compound 5, 3-(6-(6-fluoro-1H-indol-3-yl)-1H-indazol-1-yl)propanamide] |  | 1.17 µM
32 | Fc1ccc2c(-c3ccc4[nH]cnc4c3)c[nH]c2c1 [Compound 25, 5-(6-fluoro-1H-indol-3-yl)-1H-benzo[d]imidazole] |  | 0.188 µM
33 | NC(=O)Cn1ncc2ccc(-c3c[nH]c4cc(F)ccc34)cc21 [Compound 2, 2-(6-(6-fluoro-1H-indol-3-yl)-1H-indazol-1-yl)acetamide] |  | 0.946 µM
34 | NC(=O)CCn1cc2ccc(-c3c[nH]c4cc(F)ccc34)cc2n1 [Compound 17, 3-(6-(6-fluoro-1H-indol-3-yl)-2H-indazol-2-yl)propanamide] |  | 0.935 µM
35 | c1ccc2c(-c3ccc4cn[nH]c4c3)c[nH]c2c1 [Compound 108, 6-(1H-indol-3-yl)-1H-indazole] | 0.599 µM | 
